Structures are written as SMILES.

In the test the target is human RIP1 kinase domain (2-375) (Homo sapiens (Human), UniProt Q13546). Kind of test: biochemical. The format is biochemical. To be noted: human RIP1 kinase domain (2-375), Transcreener ADP assay, 50 uM ATP, 2 hours incubation; read-out: RIP1 Ki. In outline: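 Ki^app comes from Morrison tight-binding fits of fractional activity versus compound concentration. Activity was read as ADP production, via tracer displacement lowering fluorescence polarization (633 nm laser). Conditions: 2 h, 50 nM insect-cell-expressed enzyme, 50 uM ATP, 30 mM MgCl2, 1 mM DTT, 0.5% DMSO, pH 7.5 Hepes.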
Chain of human RIP1 kinase domain (2-375) (Q13546 2-375): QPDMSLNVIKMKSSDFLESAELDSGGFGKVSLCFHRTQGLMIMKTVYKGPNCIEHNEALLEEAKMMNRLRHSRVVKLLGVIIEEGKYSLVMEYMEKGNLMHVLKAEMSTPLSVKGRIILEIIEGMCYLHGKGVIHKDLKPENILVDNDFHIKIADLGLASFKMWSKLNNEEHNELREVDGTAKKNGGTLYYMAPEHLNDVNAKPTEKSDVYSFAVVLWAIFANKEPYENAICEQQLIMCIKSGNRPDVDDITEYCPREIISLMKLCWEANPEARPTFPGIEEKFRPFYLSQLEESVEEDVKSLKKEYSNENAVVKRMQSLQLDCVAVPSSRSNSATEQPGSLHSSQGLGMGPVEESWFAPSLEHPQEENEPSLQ

For `Cc1nn2c(c1C)N(C)C(=O)[C@@H](NC(=O)c1ncn(Cc3ccccc3)n1)CC2` [Example 274, (S)-1-benzyl-N-(2,3,4-trimethyl-5-oxo-5,6,7,8-tetrahydro-4H-pyrazolo[1,5-a][1,3]diazepin-6-yl)-1H-1,2,4-triazole-3-carboxamide], the Ki (commonly the equilibrium dissociation constant of an inhibitor or competing ligand from its target) is 39.5 nM.

In the case of `CC[C@@]1(C)OCc2cnc(C(=O)N[C@H]3CCn4nc(C)cc4N(C)C3=O)cc21` [Example 275, (R)—N—((S)-2,4-dimethyl-5-oxo-5,6,7,8-tetrahydro-4H-pyrazolo[1,5-a][1,3]diazepin-6-yl)-1-ethyl-1-methyl-1,3-dihydrofuro[3,4-c]pyridine-6-carboxamide], the Ki was 1100 nM.

`CC[C@@]1(C)OCc2cnc(C(=O)N[C@H]3CCn4nc(C)c(C)c4N(C)C3=O)cc21` [Example 276, (R)-1-ethyl-1-methyl-N—((S)-2,3,4-trimethyl-5-oxo-5,6,7,8-tetrahydro-4H-pyrazolo[1,5-a][1,3]diazepin-6-yl)-1,3-dihydrofuro[3,4-c]pyridine-6-carboxamide]: the Ki was 93.6 nM.

As for `CN1C(=O)[C@@H](NC(=O)c2nnn3c2CC(C(F)(F)C(F)(F)F)CC3)COc2ccccc21` (stereo partly drawn) [Example 277, N—((S)-5-methyl-4-oxo-2,3,4,5-tetrahydrobenzo[b][1,4]oxazepin-3-yl)-5-(perfluoroethyl)-4,5,6,7-tetrahydro-[1,2,3]triazolo[1,5-a]pyridine-3-carboxamide], the Ki is 23.9 nM.

In the case of `Cc1ccc(Cn2cnc(C(=O)NC3CCn4nc(C5CC5)cc4N(C)C3=O)n2)cn1` (stereo not drawn) [Example 278, N-(2-cyclopropyl-4-methyl-5-oxo-5,6,7,8-tetrahydro-4H-pyrazolo[1,5-a][1,3]diazepin-6-yl)-1-((6-methylpyridin-3-yl)methyl)-1H-1,2,4-triazole-3-carboxamide], the Ki stood at 516 nM.

For the compound `CN1C(=O)[C@@H](NC(=O)c2n[nH]c3ncc(C(F)(F)F)cc23)COc2ccccc21` [Example 279, (S)—N-(5-methyl-4-oxo-2,3,4,5-tetrahydrobenzo[b][1,4]oxazepin-3-yl)-5-(trifluoromethyl)-1H-pyrazolo[3,4-b]pyridine-3-carboxamide], the Ki came to 98.1 nM.

With `Cc1nn2c(c1C)N(C)C(=O)[C@@H](NC(=O)c1ncn(Cc3ccc(F)cc3F)n1)CC2` [Example 280, (S)-1-(2,4-difluorobenzyl)-N-(2,3,4-trimethyl-5-oxo-5,6,7,8-tetrahydro-4H-pyrazolo[1,5-a][1,3]diazepin-6-yl)-1H-1,2,4-triazole-3-carboxamide], the Ki turned out to be 50.9 nM.

For `Cc1nn2c(c1C)N(C)C(=O)[C@@H](NC(=O)c1ncn(Cc3ccc(F)cc3)n1)CC2` [Example 281, (S)-1-(4-fluorobenzyl)-N-(2,3,4-trimethyl-5-oxo-5,6,7,8-tetrahydro-4H-pyrazolo[1,5-a][1, 3]diazepin-6-yl)-1H-1,2,4-triazole-3-carboxamide], the Ki worked out at 38.7 nM.

For the compound `CN1C(=O)[C@@H](NC(=O)c2nnc(Cc3ccccc3)o2)CCn2nc(C3CC3)cc21` [Example 282, (S)-5-benzyl-N-(2-cyclopropyl-4-methyl-5-oxo-5,6,7,8-tetrahydro-4H-pyrazolo[1,5-a][1,3]diazepin-6-yl)-1,3,4-oxadiazole-2-carboxamide], the Ki came out at 59.4 nM.

Consider `CN1C(=O)[C@@H](NC(=O)c2ncn(Cc3ccccc3)n2)CCn2nc(C3CC3(F)F)cc21` (stereo partly drawn) [Example 283, 1-benzyl-N-((6S)-2-(2,2-difluorocyclopropyl)-4-methyl-5-oxo-5,6,7,8-tetrahydro-4H-pyrazolo[1,5-a][1,3]diazepin-6-yl)-1H-1,2,4-triazole-3-carboxamide], for which the Ki was 72.2 nM.

Take `CN1C(=O)[C@H](NC(=O)c2ncn(Cc3ccccc3)n2)CCn2nc(C3CC3(F)F)cc21` (stereo partly drawn) [Example 284, 1-benzyl-N-((6R)-2-(2,2-difluorocyclopropyl)-4-methyl-5-oxo-5,6,7,8-tetrahydro-4H-pyrazolo[1,5-a][1,3]diazepin-6-yl)-1H-1,2,4-triazole-3-carboxamide]: the Ki amounted to 86.4 nM.

Consider `CN1C(=O)[C@@H](NC(=O)c2nnc(Cc3ccccc3)[nH]2)CCn2nc(C3CC3(F)F)cc21` (stereo partly drawn) [Example 285, 5-benzyl-N-((6S)-2-(2,2-difluorocyclopropyl)-4-methyl-5-oxo-5,6,7,8-tetrahydro-4H-pyrazolo[1,5-a][1,3]diazepin-6-yl)-4H-1,2,4-triazole-3-carboxamide], for which the Ki came out at 219 nM.

For the compound `CN1C(=O)[C@H](NC(=O)c2nnc(Cc3ccccc3)[nH]2)CCn2nc(C3CC3(F)F)cc21` (stereo partly drawn) [Example 286, 5-benzyl-N-((6R)-2-(2,2-difluorocyclopropyl)-4-methyl-5-oxo-5,6,7,8-tetrahydro-4H-pyrazolo[1,5-a][1,3]diazepin-6-yl)-4H-1,2,4-triazole-3-carboxamide], the Ki is 92.4 nM.

With `Cc1cc2n(n1)CC[C@H](NC(=O)c1cc3c(cn1)COC3(C)C1CC1)C(=O)N2C` (stereo partly drawn) [Example 287, 1-cyclopropyl-N—((S)-2,4-dimethyl-5-oxo-5,6,7,8-tetrahydro-4H-pyrazolo[1,5-a][1,3]diazepin-6-yl)-1-methyl-1,3-dihydrofuro[3,4-c]pyridine-6-carboxamide], the Ki was found to be 1400 nM.

As to `CN1C(=O)C(NC(=O)c2ncn(Cc3ccc(Cl)cc3)n2)CCn2nc(C3CC3)cc21` (stereo not drawn) [Example 288, 1-(4-chlorobenzyl)-N-(2-cyclopropyl-4-methyl-5-oxo-5,6,7,8-tetrahydro-4H-pyrazolo[1,5-a][1,3]diazepin-6-yl)-1H-1,2,4-triazole-3-carboxamide], the Ki amounted to 62.3 nM.

With `Cc1cc2n(n1)CC[C@H](NC(=O)c1ncn(CC3(C)CC3)n1)C(=O)N2C` [Example 289, (S)—N-(2,4-dimethyl-5-oxo-5,6,7,8-tetrahydro-4H-pyrazolo[1,5-a][1,3]diazepin-6-yl)-1-((1-methylcyclopropyl)methyl)-1H-1,2,4-triazole-3-carboxamide], the Ki came to 395 nM.

For the compound `CN1C(=O)C(NC(=O)c2n[nH]c(Cc3ccccc3)n2)CCn2cncc21` (stereo not drawn) [Example 293, 5-benzyl-N-(1-methyl-2-oxo-2,3,4,5-tetrahydro-1H-imidazo[1,5-a][1,3]diazepin-3-yl)-1H-1,2,4-triazole-3-carboxamide], the Ki worked out at 72.8 nM.

As for `CC[C@@]1(C)OCc2cnc(C(=O)NC3CCn4cncc4N(C)C3=O)cc21` (stereo partly drawn) [Example 294, (1R)-1-ethyl-1-methyl-N-(1-methyl-2-oxo-2,3,4,5-tetrahydro-1H-imidazo[1,5-a][1,3]diazepin-3-yl)-1,3-dihydrofuro[3,4-c]pyridine-6-carboxamide], the Ki amounted to 557 nM.

Turning to `CN1C(=O)C(NC(=O)c2cn(Cc3ccccc3)nn2)CCn2cncc21` (stereo not drawn) [Example 295, 1-benzyl-N-(1-methyl-2-oxo-2,3,4,5-tetrahydro-1H-imidazo[1,5-a][1,3]diazepin-3-yl)-1H-1,2,3-triazole-4-carboxamide], the Ki was found to be 118 nM.

With `CC(c1cnc2[nH]nc(C(=O)N[C@H]3COc4ccccc4N(C)C3=O)c2c1)C(F)(F)F` (stereo partly drawn) [Example 296, N—((S)-5-methyl-4-oxo-2,3,4,5-tetrahydrobenzo[b][1,4]oxazepin-3-yl)-5-(1,1,1-trifluoropropan-2-yl)-1H-pyrazolo[3,4-b]pyridine-3-carboxamide], the Ki stood at 61.2 nM.

For the compound `CN1C(=O)[C@@H](NC(=O)c2ncn(Cc3ccccc3)n2)CCn2cncc21` [Example 297, (S)-1-benzyl-N-(1-methyl-2-oxo-2,3,4,5-tetrahydro-1H-imidazo[1,5-a][1,3]diazepin-3-yl)-1H-1,2,4-triazole-3-carboxamide], the Ki is 20.8 nM.

As to `CN1C(=O)[C@H](NC(=O)c2ncn(Cc3ccc(F)cc3F)n2)CCn2nc(C3CC3)cc21` [Example 298, (R)—N-(2-cyclopropyl-4-methyl-5-oxo-5,6,7,8-tetrahydro-4H-pyrazolo[1,5-a][1,3]diazepin-6-yl)-1-(2,4-difluorobenzyl)-1H-1,2,4-triazole-3-carboxamide], the Ki is 2560 nM.

For the compound `CN1C(=O)[C@@H](NC(=O)c2cc3c(cn2)COC32CCOCC2)COc2ccccc21` [Example 299, (S)—N-(5-methyl-4-oxo-2,3,4,5-tetrahydrobenzo[b][1,4]oxazepin-3-yl)-2′,3′,5′,6′-tetrahydro-3H-spiro[furo[3,4-c]pyridine-1,4′-pyran]-6-carboxamide], the Ki turned out to be 74 nM.

As to `Cc1nn2c(c1C)N(C)C(=O)[C@@H](NC(=O)c1nnc(Cc3ccccc3)[nH]1)CC2` [Example 300, (S)-5-benzyl-N-(2,3,4-trimethyl-5-oxo-5,6,7,8-tetrahydro-4H-pyrazolo[1,5-a][1,3]diazepin-6-yl)-4H-1,2,4-triazole-3-carboxamide], the inhibition constant Ki came to 50.4 nM.

Regarding `Cc1cc2n(n1)CC[C@H](NC(=O)c1ncn(Cc3c(F)cccc3F)n1)C(=O)N2C` [Example 301, (S)-1-(2,6-difluorobenzyl)-N-(2,4-dimethyl-5-oxo-5,6,7,8-tetrahydro-4H-pyrazolo[1,5-a][1,3]diazepin-6-yl)-1H-1,2,4-triazole-3-carboxamide], the Ki worked out at 10.4 nM.

Regarding `CN1C(=O)[C@@H](NC(=O)c2ncn(Cc3c(F)cccc3F)n2)CCn2nc(C3CC3)cc21` [Example 302, (S)—N-(2-cyclopropyl-4-methyl-5-oxo-5,6,7,8-tetrahydro-4H-pyrazolo[1,5-a][1,3]diazepin-6-yl)-1-(2,6-difluorobenzyl)-1H-1,2,4-triazole-3-carboxamide], the inhibition constant Ki was 26.8 nM.

In the case of `CN1C(=O)[C@@H](NC(=O)c2ncn(Cc3cc(F)cc(F)c3)n2)CCn2nc(C3CC3)cc21` [Example 303, (S)—N-(2-cyclopropyl-4-methyl-5-oxo-5,6,7,8-tetrahydro-4H-pyrazolo[1,5-a][1,3]diazepin-6-yl)-1-(3,5-difluorobenzyl)-1H-1,2,4-triazole-3-carboxamide], the Ki was 18.5 nM.

The values above are taken from US10988459B2 (priority 2015, dated 2021).
